Results: PubChem BioAssay AID2060486 (Molecular Pharmacology Branch, DTP, NCI, 2025)

System: IGROV1 complex spheroids (HUVEC, MSC), viability % test/control
Assay: Anticancer human tumor IGROV1 cell line growth inhibition [GQUAD];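 also: spheroids exposed to compounds for 7 days before readout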;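 as to viability, T/C: 100% = DMSO vehicle control viability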
Conditions: for IC50: curve of first compound; for viability, T/C: stronger effect = lower value
Summary of the method: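 Multi-cell-type spheroids of tumor cells with HUVEC and mesenchymal stem cells, treated with drug combinations. Concentrations descend in half-log steps from near clinical Cmax, or from 10 microM where Cmax is unknown; viability read-out.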

[1] = second compound 0.0316 µM, first compound 0.0316 µM
[2] = second compound 0.0316 µM, first compound 0.1 µM
[3] = second compound 0.0316 µM, first compound 0.316 µM
[4] = second compound 0.0316 µM, first compound 1 µM
[5] = second compound 0.0316 µM, first compound 3.16 µM
[6] = second compound 0.0316 µM, first compound 10 µM
[7] = second compound 0.1 µM, first compound 0.0316 µM
[8] = second compound 0.1 µM, first compound 0.1 µM
[9] = second compound 0.1 µM, first compound 0.316 µM
[10] = second compound 0.1 µM, first compound 1 µM
[11] = second compound 0.1 µM, first compound 3.16 µM
[12] = second compound 0.1 µM, first compound 10 µM
[13] = second compound 0.316 µM, first compound 0.0316 µM
[14] = second compound 0.316 µM, first compound 0.1 µM
[15] = second compound 0.316 µM, first compound 0.316 µM
[16] = second compound 0.316 µM, first compound 1 µM
[17] = second compound 0.316 µM, first compound 3.16 µM
[18] = second compound 0.316 µM, first compound 10 µM
[19] = second compound 1 µM, first compound 0.0316 µM
[20] = second compound 1 µM, first compound 0.1 µM
[21] = second compound 1 µM, first compound 0.316 µM
[22] = second compound 1 µM, first compound 1 µM
[23] = second compound 1 µM, first compound 3.16 µM
[24] = second compound 1 µM, first compound 10 µM
[25] = second compound 3.16 µM, first compound 0.0316 µM
[26] = second compound 3.16 µM, first compound 0.1 µM
[27] = second compound 3.16 µM, first compound 0.316 µM
[28] = second compound 3.16 µM, first compound 1 µM
[29] = second compound 3.16 µM, first compound 3.16 µM
[30] = second compound 3.16 µM, first compound 10 µM
[31] = second compound 10 µM, first compound 0.0316 µM
[32] = second compound 10 µM, first compound 0.1 µM
[33] = second compound 10 µM, first compound 0.316 µM
[34] = second compound 10 µM, first compound 1 µM
[35] = second compound 10 µM, first compound 3.16 µM
[36] = second compound 10 µM, first compound 10 µM

What does the source list for C#Cc1c(F)ccc2cc(O)cc(-c3ncc4c(N5CC6CCC(C5)N6)nc(OCC56CCCN5CC(F)C6)nc4c3F)c12 (stereo unspecified) + Cc1[nH]c2ccc(F)cc2c1-c1nc2c3cccnc3c3ncccc3c2[nH]1?
IC50 (second compound 0.0316 µM): > 10000 nM; IC50 (second compound 0.1 µM): > 10000 nM; IC50 (second compound 0.316 µM): 3920 nM; IC50 (second compound 1 µM): < 31.6 nM; IC50 (second compound 3.16 µM): < 31.6 nM; IC50 (second compound 10 µM): < 31.6 nM; viability, T/C [1]: 101%; viability, T/C [2]: 76.3%; viability, T/C [3]: 99.2%; viability, T/C [4]: 78.7%; viability, T/C [5]: 89.2%; viability, T/C [6]: 60.1%; viability, T/C [7]: 88.4%; viability, T/C [8]: 70.3%; viability, T/C [9]: 68.4%; viability, T/C [10]: 81.6%; viability, T/C [11]: 91.4%; viability, T/C [12]: 62.2%; viability, T/C [13]: 66.2%; viability, T/C [14]: 40%; viability, T/C [15]: 69.3%; viability, T/C [16]: 58.6%; viability, T/C [17]: 58.7%; viability, T/C [18]: 12.7%; viability, T/C [19]: 2.66%; viability, T/C [20]: 3.87%; viability, T/C [21]: 2.81%; viability, T/C [22]: 3.06%; viability, T/C [23]: 2.68%; viability, T/C [24]: 1.82%; viability, T/C [25]: 3.12%; viability, T/C [26]: 3.21%; viability, T/C [27]: 3.09%; viability, T/C [28]: 2.69%; viability, T/C [29]: 2.86%; viability, T/C [30]: 1.68%; viability, T/C [31]: 2.87%; viability, T/C [32]: 3.1%; viability, T/C [33]: 3.6%; viability, T/C [34]: 2.65%; viability, T/C [35]: 2.34%; viability, T/C [36]: 1.27%

For CC(=O)O[C@H]1C(=O)[C@@]2(C)[C@H]([C@H](OC(=O)c3ccccc3)[C@]3(O)C[C@H](OC(=O)[C@H](O)[C@@H](NC(=O)c4ccccc4)c4ccccc4)C(C)=C1C3(C)C)[C@]1(OC(C)=O)CO[C@@H]1C[C@@H]2O + Cc1[nH]c2ccc(F)cc2c1-c1nc2c3cccnc3c3ncccc3c2[nH]1, which IC50 (second compound 0.0316 µM) is on record?
The IC50 was < 31.6 nM.

What about the IC50 (second compound 0.1 µM) of the same compound?
The IC50 was < 31.6 nM.

What about the IC50 (second compound 0.316 µM) of the same compound?
Its IC50 is < 31.6 nM.

What about the IC50 (second compound 1 µM) of the same compound?
Its IC50 is < 31.6 nM.

And the IC50 (second compound 3.16 µM)?
The IC50 was < 31.6 nM.

And the IC50 (second compound 10 µM)?
The IC50 was < 31.6 nM.

What about the viability, T/C [1] of the same compound?
The viability, T/C was 8.39%.

And the viability, T/C [2]?
Its viability, T/C is 5.36%.

What about the viability, T/C [3] of the same compound?
Its viability, T/C is 5.66%.

And the viability, T/C [4]?
Its viability, T/C is 4.68%.

What about the viability, T/C [5] of the same compound?
The viability, T/C was 4.86%.

What about the viability, T/C [6] of the same compound?
Its viability, T/C is 4.6%.

And the viability, T/C [7]?
Its viability, T/C is 7.76%.

What about the viability, T/C [8] of the same compound?
The viability, T/C was 6.43%.

And the viability, T/C [9]?
Its viability, T/C is 6.02%.

What about the viability, T/C [10] of the same compound?
The viability, T/C was 4.48%.

What about the viability, T/C [11] of the same compound?
Its viability, T/C is 4.3%.

What about the viability, T/C [12] of the same compound?
The viability, T/C was 4.13%.

What about the viability, T/C [13] of the same compound?
The viability, T/C was 4.55%.

And the viability, T/C [14]?
The viability, T/C was 3.65%.

And the viability, T/C [15]?
Its viability, T/C is 3.47%.

What about the viability, T/C [16] of the same compound?
Its viability, T/C is 3.01%.

And the viability, T/C [17]?
The viability, T/C was 2.72%.

And the viability, T/C [18]?
Its viability, T/C is 2.99%.

What about the viability, T/C [19] of the same compound?
The viability, T/C was 2.66%.

What about the viability, T/C [20] of the same compound?
Its viability, T/C is 2.5%.

What about the viability, T/C [21] of the same compound?
The viability, T/C was 2.5%.

And the viability, T/C [22]?
Its viability, T/C is 2.49%.

What about the viability, T/C [23] of the same compound?
The viability, T/C was 2.3%.

What about the viability, T/C [24] of the same compound?
Its viability, T/C is 2.06%.

What about the viability, T/C [25] of the same compound?
Its viability, T/C is 2.72%.

And the viability, T/C [26]?
Its viability, T/C is 2.23%.

What about the viability, T/C [27] of the same compound?
The viability, T/C was 2.86%.

And the viability, T/C [28]?
Its viability, T/C is 2.81%.

What about the viability, T/C [29] of the same compound?
Its viability, T/C is 2.28%.

What about the viability, T/C [30] of the same compound?
The viability, T/C was 2.17%.

And the viability, T/C [31]?
Its viability, T/C is 1.84%.

What about the viability, T/C [32] of the same compound?
Its viability, T/C is 2.38%.

And the viability, T/C [33]?
Its viability, T/C is 2.16%.

And the viability, T/C [34]?
The viability, T/C was 2.22%.

And the viability, T/C [35]?
Its viability, T/C is 2.3%.

And the viability, T/C [36]?
Its viability, T/C is 2.4%.

CCCS(=O)(=O)Nc1ccc(F)c(C(=O)c2c[nH]c3ncc(-c4ccc(Cl)cc4)cc23)c1F + Cc1[nH]c2ccc(F)cc2c1-c1nc2c3cccnc3c3ncccc3c2[nH]1 was tested. Which IC50 (second compound 0.0316 µM) did it give?
Its IC50 is 4760 nM.

What about the IC50 (second compound 0.1 µM) of the same compound?
Its IC50 is 5340 nM.

And the IC50 (second compound 0.316 µM)?
The IC50 was 1390 nM.

What about the IC50 (second compound 1 µM) of the same compound?
Its IC50 is < 31.6 nM.

And the IC50 (second compound 3.16 µM)?
The IC50 was < 31.6 nM.

What about the IC50 (second compound 10 µM) of the same compound?
Its IC50 is < 31.6 nM.

And the viability, T/C [1]?
The viability, T/C was 97.9%.

And the viability, T/C [2]?
Its viability, T/C is 95.9%.

And the viability, T/C [3]?
The viability, T/C was 98.4%.

What about the viability, T/C [4] of the same compound?
Its viability, T/C is 59.4%.

And the viability, T/C [5]?
Its viability, T/C is 80.5%.

And the viability, T/C [6]?
The viability, T/C was 19.3%.

And the viability, T/C [7]?
Its viability, T/C is 104%.

And the viability, T/C [8]?
The viability, T/C was 91.6%.

And the viability, T/C [9]?
Its viability, T/C is 77.5%.

And the viability, T/C [10]?
The viability, T/C was 64.8%.

What about the viability, T/C [11] of the same compound?
The viability, T/C was 82.1%.

And the viability, T/C [12]?
Its viability, T/C is 11.7%.

What about the viability, T/C [13] of the same compound?
The viability, T/C was 86.6%.

And the viability, T/C [14]?
The viability, T/C was 81.1%.

And the viability, T/C [15]?
Its viability, T/C is 81.4%.

What about the viability, T/C [16] of the same compound?
The viability, T/C was 53.2%.

What about the viability, T/C [17] of the same compound?
The viability, T/C was 32.3%.

And the viability, T/C [18]?
The viability, T/C was 2.23%.

And the viability, T/C [19]?
Its viability, T/C is 4.32%.

What about the viability, T/C [20] of the same compound?
Its viability, T/C is 3.48%.

What about the viability, T/C [21] of the same compound?
The viability, T/C was 3.41%.

What about the viability, T/C [22] of the same compound?
Its viability, T/C is 3.93%.

What about the viability, T/C [23] of the same compound?
Its viability, T/C is 4.28%.

What about the viability, T/C [24] of the same compound?
The viability, T/C was 3%.

What about the viability, T/C [25] of the same compound?
The viability, T/C was 3.26%.

And the viability, T/C [26]?
Its viability, T/C is 3.6%.

What about the viability, T/C [27] of the same compound?
Its viability, T/C is 3.61%.

And the viability, T/C [28]?
The viability, T/C was 3.81%.

What about the viability, T/C [29] of the same compound?
Its viability, T/C is 3.5%.

And the viability, T/C [30]?
Its viability, T/C is 2.72%.

And the viability, T/C [31]?
The viability, T/C was 3.29%.

And the viability, T/C [32]?
The viability, T/C was 3.66%.

And the viability, T/C [33]?
Its viability, T/C is 4.63%.

And the viability, T/C [34]?
The viability, T/C was 3.69%.

And the viability, T/C [35]?
Its viability, T/C is 3.96%.

And the viability, T/C [36]?
The viability, T/C was 2.93%.
